Results on one compound are retold here after paper PMC7997574, “Lead Optimization of Benzoxazolone Carboxamides as Orally Bioavailable and CNS Penetrant Acid Ceramidase Inhibitors” (Journal of Medicinal Chemistry, 2020).

Data set [1] addresses T1, acid sphingomyelinase (ASM) (Homo sapiens, UniProt P17405).
T1 construct: 1.3 nM purified human full-length ASM enzyme (purified in house); made in house
T1 sequence (P17405 47-631): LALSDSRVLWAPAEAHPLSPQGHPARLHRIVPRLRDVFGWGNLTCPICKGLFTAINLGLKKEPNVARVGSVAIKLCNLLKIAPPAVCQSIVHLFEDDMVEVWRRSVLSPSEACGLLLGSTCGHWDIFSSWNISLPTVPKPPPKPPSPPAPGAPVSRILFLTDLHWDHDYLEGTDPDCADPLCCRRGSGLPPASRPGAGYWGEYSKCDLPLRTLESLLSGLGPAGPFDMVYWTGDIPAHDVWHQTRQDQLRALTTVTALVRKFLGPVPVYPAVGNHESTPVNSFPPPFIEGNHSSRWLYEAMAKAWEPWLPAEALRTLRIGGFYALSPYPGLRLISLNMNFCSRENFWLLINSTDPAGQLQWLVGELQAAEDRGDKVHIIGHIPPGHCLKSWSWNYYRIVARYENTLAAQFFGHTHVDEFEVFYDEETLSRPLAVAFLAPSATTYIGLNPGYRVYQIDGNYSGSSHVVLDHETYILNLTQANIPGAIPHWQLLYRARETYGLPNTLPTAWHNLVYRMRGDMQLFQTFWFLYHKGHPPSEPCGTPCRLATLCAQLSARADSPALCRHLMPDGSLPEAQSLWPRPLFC
In words: In vitro hASM assay. To be noted: 1 and 10 μM. It is filed as biochemical. As to the method:
hASM activity measurement was conducted using the fluorogenic substrate 6-hexadecanoylamino-4-methylumbelliferylphosphorylcholine (HMU-PC, Toronto Research Chemicals) at 0.5 μM and 1.3 nM purified human full-length ASM enzyme (purified in house) in a buffer containing 50 mM citrate, 150 mM NaCl, 5 mM ZnCl2, and 0.43 mM Triton X-100 at pH 4.7 in a final volume of 50 μL. The reaction mixtures were incubated for 45 min at rt and stopped by the addition of 150 μL of 1 M glycine at pH 12.5. The formation of the fluorescent product was monitored by a plate reader at excitation/emission wavelengths of 385/450 nm. The average hASM activity was calculated from two independent experiments, each performed in two technical replicates.

For another data set, the target named is T2, GCase (Homo sapiens, UniProt P04062).
T2 construct: 5 nM purified human full-length GCase enzyme; made in house
T2 sequence (P04062 40-536): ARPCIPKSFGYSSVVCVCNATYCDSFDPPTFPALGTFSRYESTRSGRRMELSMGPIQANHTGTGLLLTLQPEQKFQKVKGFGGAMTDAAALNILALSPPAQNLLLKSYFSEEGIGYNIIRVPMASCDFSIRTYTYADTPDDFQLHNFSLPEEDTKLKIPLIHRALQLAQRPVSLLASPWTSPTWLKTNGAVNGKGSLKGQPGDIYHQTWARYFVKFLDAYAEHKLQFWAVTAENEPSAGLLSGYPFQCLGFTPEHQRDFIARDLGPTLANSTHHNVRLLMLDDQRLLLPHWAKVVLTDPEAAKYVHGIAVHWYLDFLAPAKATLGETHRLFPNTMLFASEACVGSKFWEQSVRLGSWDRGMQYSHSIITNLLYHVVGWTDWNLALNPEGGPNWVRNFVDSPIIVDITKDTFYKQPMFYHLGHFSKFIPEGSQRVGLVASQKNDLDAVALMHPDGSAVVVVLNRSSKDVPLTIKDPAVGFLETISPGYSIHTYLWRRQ
In words: In vitro hGCase assay. It is filed as biochemical. To be noted: 1 and 10 μM. As to the method: hGCase activity measurement was conducted using the fluorogenic substrate 4-methylumbelliferyl-β-D-[…] hydrate (4-MUG, Merck) at 1 mM and 5 nM purified human full-length GCase enzyme and 50 nM of its natural activator SapC (both GCase and SapC were purified in house) in a buffer containing 50 mM citric acid, 174 mM K2HPO4, 15 μM phosphatidylserine, and 0.32 mM Triton X-100 at pH 4.7 in a final volume of 50 μL. The reaction mixtures were incubated for 15 min at rt and stopped by the addition of 150 μL of 1 M glycine at pH 12.5. The cleavage of 4-MUG was monitored by a plate reader at excitation/emission wavelengths of 365/440 nm. The average hGCase activity was calculated from two independent experiments, each performed in two technical replicates.

The subject of a further data set is GluSph (d18:1). In words: Brain GluSph levels in 4L;C* mice (neuropathic Gaucher's disease model). The class given is in vivo, mouse. Here is the method: 4L;C* mice (C57BL/6 J/129SvEV) were randomly assigned to three treatment groups (N = 4–8 with mixed males and females) and dosed once a day i.p. with 90 or 30 mg kg^–1 of 22m or vehicle. Treatment started at 5 days of age for a duration of 14 days. The application volume was set to 10 μL per gram of body weight, and dosage was adjusted accordingly. Animals of all groups were sacrificed 1 h after the last dose, and the brain tissues and plasma were collected. The left brain containing cortex, cerebella, thalamus, and brainstem was analyzed for SphL levels by MS. Data were analyzed using the Student t test. The right brain containing cortex, cerebella, thalamus, and brainstem and plasma were analyzed for drug levels of 22m. All mice were housed under pathogen-free conditions in the animal facility, and animal experiment was performed according to the IACUC approved protocol (2018-0056) at Cincinnati Children’s Hospital Research Foundation. Wild Type (WT) (GALC+/+) and Twitcher (Twi) (GALC–/−) mice were genotyped by PCR as previously described.[58] […] The left brain containing cortex, cerebella, thalamus, and brainstem was analyzed for SphL levels by MS. Data were analyzed using the Student t test. The right brain containing cortex, cerebella, thalamus, and brainstem and plasma were analyzed for drug levels of 22m. […]

Data set [2] can be described thus: In vitro mouse brain tissue protein binding (equilibrium dialysis). The class given is in vitro ADME. Here is the method:
Studies were performed by the DMPK Group at Shanghai ChemPartner Co., Ltd., using the equilibrium dialysis method. Values are the mean of two technical replicates.

As for `CC(C)CNC(=O)n1c(=O)oc2cc(C3CCN(C)CC3)ccc21` [22m, N-Isobutyl-6-(1-methyl-4-piperidyl)-2-oxo-1,3-benzoxazole-3-carboxamide], the “effect on activity of ASM” value in data set [1] is given as “no effect”. Besides, the “effect on activity of GCase” value at GCase is on record as “no effect”. Moreover, in the data set with GluSph (d18:1) (30 and 90 mg kg^–1 i.p. once a day for 14 days), the “effect on brain GluSph (d18:1)” value is on record as “significantly reduces GluSph (d18:1) in the brain of 4L;C* mice in a dose-dependent manner”. Further, the “reduction of the GluSph levels relative to control” value in the data set on GluSph (d18:1) (brain, 90 mg kg^–1 i.p. once a day for 14 days) was 54%. Moreover, the “Fb, u (%) brain fraction unbounded” value in data set [2] was determined as 0.70%.
